Laboratory results: patent US20070225202A1, “Methods for Identifying Modulators of Active Kit Tyrosine Kinase Receptor” (priority 2003, published 2007)

Experiments:
[1] = tested on: HMC1.1 cells (naturally expressing KITV560G); test: cells; conditions: Homo sapiens, 72 h, read-out: inhibition of proliferation
Method: The cell-viability assay was performed using an ATPlite™ assay (PerkinElmer Life Sciences, Boston, Mass.), according to the manufacturer's protocol. […] Cells were incubated for 72 hours in the presence or absence of KIT inhibitors and cell viability measured

KIT816 mutants = conditions: previous studies; cited from earlier work
[2] = tested on: constitutively active KIT mutants exhibiting mutations in the juxtamembrane domain; conditions: cited from earlier work
KITD814V and KITD814Y = KITD814V and KITD814Y expressed in transfected cells; cited from earlier work

Structure (SMILES)	inhibition at 0.1 µM [1]	effectiveness against KIT816 mutants (KIT816 mutants)	inhibition of constitutively active KIT mutants [2]	inhibition of activated KIT receptors (KITD814V and KITD814Y)
Cc1ccc(NC(=O)c2ccc(CN3CCN(C)CC3)cc2)cc1Nc1nccc(-c2cccnc2)n1 [Gleevec]	~80%	ineffective	inhibit constitutively active KIT mutants	
Cc1ccc(-c2nn(C(C)(C)C)c3ncnc(N)c23)cc1 [PP1]				act as inhibitors of activated KIT receptors
CC(C)(C)n1nc(-c2ccc(Cl)cc2)c2c(N)ncnc21 [PP2]				act as inhibitors of activated KIT receptors
